Source: ChEMBL document CHEMBL1828550, “Lead identification of β-lactam and related imine inhibitors of the molecular chaperone heat shock protein 90” (Bioorg Med Chem, 2011)
Activity calls are given as the source filed them. The calls are words filed in the database; no cut-off is given here.

Legend:
MCF7 = assay: Antiproliferative activity against human MCF7 cells assessed as cell viability after 72 hrs by MTT assay; format: functional, cell-based; settings: MCF7, 72 h
[1] = biological target: T1, Heat shock protein HSP 90-alpha (Homo sapiens, UniProt P07900); assay: Displacement of FITC-labeled geldanamycin from human recombinant HSP90alpha after 24 hrs by fluorescence displacement assay
[2] = biological target: T1, Heat shock protein HSP 90-alpha; assay: Inhibition of Hsp90alpha in human MCF7 assessed as induction of proteasomal ER2alpha protein degradation at 100 uM after 24 hrs by Western blot analysis relative to control
[3] = biological target: T1, Heat shock protein HSP 90-alpha; assay: Inhibition of Hsp90alpha in human MCF7 assessed as induction of proteasomal ER2alpha protein degradation at 50 uM after 24 hrs by Western blot analysis relative to control

CCc1cc([C@@H]2CC(=O)N2c2cc(OC)c(OC)c(OC)c2)c(O)cc1O
IC50 (MCF7): 31 µM
IC50 [1]: > 200 µM

CCc1cc([C@@H]2CC(=O)N2c2ccc3c(c2)OCCO3)c(O)cc1O
IC50 (MCF7): 48 µM
Activity [2]: Active
Activity [3]: Active
IC50 [1]: 5.6 µM

C=CCNC1=C2C[C@@H](C)C[C@H](OC)[C@H](O)[C@@H](C)/C=C(\C)[C@H](OC(N)=O)[C@@H](OC)/C=C\C=C(/C)C(=O)NC(=CC1=O)C2=O [TANESPIMYCIN]
IC50 (MCF7): 0.09 µM

O=C1C[C@@H](c2ccc(O)cc2O)N1c1ccc2c(c1)OCCO2
IC50 (MCF7): 23 µM
IC50 [1]: > 200 µM

CCc1cc([C@@H]2CC(=O)N2c2ccc(OC)cc2)c(O)cc1O
IC50 (MCF7): 52 µM
IC50 [1]: > 200 µM

CCc1cc([C@@H]2CC(=O)N2c2ccc3c(c2)OCO3)c(O)cc1O
IC50 (MCF7): 31 µM
IC50 [1]: > 200 µM

CCc1cc([C@@H]2[C@@H](c3ccccc3)C(=O)N2c2ccc3c(c2)OCCO3)c(O)cc1O
IC50 (MCF7): > 100 µM
IC50 [1]: > 200 µM

COc1ccc(OC)c([C@@H]2CC(=O)N2c2ccc3c(c2)OCCO3)c1
IC50 (MCF7): 54 µM
IC50 [1]: > 200 µM

CCc1cc(/C=N/c2ccc3c(c2)OCO3)c(O)cc1O
IC50 (MCF7): > 100 µM
Activity [3]: Active
IC50 [1]: 22.1 µM

CCc1cc(/C=N/c2ccc3c(c2)OCCO3)c(O)cc1O
IC50 (MCF7): > 100 µM
Activity [3]: Active
IC50 [1]: 14.5 µM

COc1ccc([C@@H]2CC(=O)N2c2ccc3c(c2)OCCO3)c(OC)c1
IC50 (MCF7): 53 µM
IC50 [1]: > 200 µM
